We go through 26 compounds from US8541411B2, “Benzimidazole derivatives as PI3 kinase inhibitors” (GlaxoSmithKline LLC, priority 2010, dated 2013).

Each structure is given as a SMILES string.

The target in the test is T1, PI3Kβ (Homo sapiens, UniProt P42338).
T1 construct: made in house
The test can be described thus: HTRF in vitro profiling assay for PI3K inhibition, beta isoform. It counts as biochemical. The note with it: one experimental run or average of two or more runs; 200 pM enzyme, 100 uM ATP, 10 uM PIP2; read-out: P13KB PIC50 MEAN (converted). An excerpt: The PI3-Kinase profiling assays were developed to measure the compound-dependent inhibition of the alpha, beta, delta, and gamma isoforms of PI3K in an in vitro catalytic assay. This assay was developed and optimized from a kit produced by Upstate (Millipore catalog #33-017). Briefly, this procedure utilizes a pre-formed HTRF (Homogeneous Time-Resolved Fluorescence energy transfer) complex between four binding partners: 1) biotinylated PIP3, 2) GST tagged pleckstrin homology (PH) domain, 3) Europium labeled anti-GST monoclonal antibody, and 4) Streptavidin-Allophycocyanin (APC). The native PIP3 produced by PI 3-Kinase activity displaces biotin-PIP3 from the PH domain, resulting in the dissociation of the HTRF complex and a decrease in the fluorescence signal. The format of this assay is the same for all 4 isoforms of PI3K; the differences lie in the concentration of enzyme used to achieve the most robust signal. The alpha and delta assays are run at 400 pM enzyme; the beta assay is at 200 pM enzyme and the gamma assay is run at 1 nM enzyme. In addition, the alpha, beta and delta assays are run with 150 mM NaCl while the gamma assay is run in the absence of NaCl. The ATP concentration is 100 uM in the alpha, beta, and delta assays and 15 uM ATP in the gamma assay. All reactions are run at 10 uM PIP2
Compounds were serially diluted (3-fold in 100% DMSO) across a 384-well polypropylene mother plate from column 1 to column 12 and column 13 to column 24, to yield 11 concentrations for each test compound. Columns 6 and 18 contain only DMSO. Once titrations were made, 0.05 μL was transferred to a 384-well low-volume assay plate (Greiner 784076). This assay plate contained three pharmacological controls (known PI3K inhibitors) and 3 assay controls: (1) Enzyme without inhibitor; (2) Buffer minus enzyme, and (3) Buffer minus enzyme plus native PIP3. DMSO was stamped into all wells of columns 6 and 18. PIP3 was added at 40 μM in 1× Reaction buffer (1 μL of 200 μM PIP3) to alternating rows of column 18 (wells 18 B, D, F, H, J, L, N, P). The no-enzyme control reactions were run in wells 18 A, C, E, G, I, K, M, O (0.1 μL of 100% DMSO).
The PI3-Kinase profiling assay was optimized using the HTRF kit provided by Upstate (Millipore). The assay kit contained seven reagents: 1) 4× Reaction Buffer; 2) native PIP2 (substrate); 3) Stop A (EDTA); 4) Stop B (Biotin-PIP3); 5) Detection Mix A (Streptavidin-APC); 6) Detection Mix B (Eu-labeled Anti-GST plus GST-tagged PH-domain); 7) Detection Mix C (KF). In addition, the following items were obtained or purchased: PI3Kinase (prepared by GSK BR&AD), dithiothreitol (Sigma, D-5545), Adenosine-5′-triphosphate (ATP, Teknova cat. #A0220), native PIP3 (1,2-dioctanoyl-sn-glycero-3-[phosphoinositil-3,4,5-triphosphate]tetraammonium salt (Avanti polar lipids, 850186P), DMSO (Sigma, 472301).
PI3Kinase Reaction Buffer was prepared by diluting the stock 1:4 with de-ionized water. Freshly prepared DTT was added at a final concentration of 5 mM on the day of use. Enzyme addition and compound pre-incubation were initiated by the addition of 2.5 μL of PI3K (at twice its final concentration) in 1× reaction buffer to all wells using a Multidrop Combi. Plates were incubated at room temperature for 15 minutes. Reactions were initiated by addition of 2.5 μL of 2× substrate solution (PIP2 and ATP in 1× reaction buffer) using a Multidrop Combi. Plates were incubated at room temperature for one hour. Reactions were quenched by the addition of 2.5 μL of stop solution (Stop A and Stop B pre-mixed at a ratio of 5:1, respectively) to all wells using the Multidrop Combi.
On the technique in general: TR-FRET usually uses a lanthanide donor and a delayed reading to cut background.

T1 sequence (P42338 whole entry): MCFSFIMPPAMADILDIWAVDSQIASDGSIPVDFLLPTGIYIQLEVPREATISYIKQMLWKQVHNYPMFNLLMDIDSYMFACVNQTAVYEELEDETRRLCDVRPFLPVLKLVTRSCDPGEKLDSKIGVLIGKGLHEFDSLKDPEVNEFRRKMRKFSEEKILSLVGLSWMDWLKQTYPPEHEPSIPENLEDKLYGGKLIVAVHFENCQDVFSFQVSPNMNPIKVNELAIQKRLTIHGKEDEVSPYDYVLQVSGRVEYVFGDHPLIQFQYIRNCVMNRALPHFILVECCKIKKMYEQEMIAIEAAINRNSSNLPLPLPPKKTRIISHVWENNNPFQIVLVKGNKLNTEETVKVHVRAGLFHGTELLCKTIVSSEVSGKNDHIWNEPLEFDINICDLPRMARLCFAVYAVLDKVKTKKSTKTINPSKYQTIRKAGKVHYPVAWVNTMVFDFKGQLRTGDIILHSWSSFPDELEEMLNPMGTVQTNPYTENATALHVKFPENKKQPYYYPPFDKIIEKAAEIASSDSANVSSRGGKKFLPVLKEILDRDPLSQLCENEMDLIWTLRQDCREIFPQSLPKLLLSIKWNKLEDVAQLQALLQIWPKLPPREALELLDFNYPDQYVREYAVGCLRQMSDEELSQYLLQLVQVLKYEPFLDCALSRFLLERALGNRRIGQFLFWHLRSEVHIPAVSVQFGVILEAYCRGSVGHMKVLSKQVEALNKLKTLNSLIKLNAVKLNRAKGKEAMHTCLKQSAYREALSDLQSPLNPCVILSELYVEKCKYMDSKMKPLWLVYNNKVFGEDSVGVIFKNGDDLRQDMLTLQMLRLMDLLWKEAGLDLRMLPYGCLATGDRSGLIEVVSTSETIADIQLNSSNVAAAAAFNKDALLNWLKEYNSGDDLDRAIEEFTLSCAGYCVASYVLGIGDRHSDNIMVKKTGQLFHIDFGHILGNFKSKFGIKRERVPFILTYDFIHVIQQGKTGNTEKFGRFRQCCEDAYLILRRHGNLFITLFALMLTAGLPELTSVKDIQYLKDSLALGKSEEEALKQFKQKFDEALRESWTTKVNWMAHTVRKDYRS
T1 sequence (P27986 whole entry partner): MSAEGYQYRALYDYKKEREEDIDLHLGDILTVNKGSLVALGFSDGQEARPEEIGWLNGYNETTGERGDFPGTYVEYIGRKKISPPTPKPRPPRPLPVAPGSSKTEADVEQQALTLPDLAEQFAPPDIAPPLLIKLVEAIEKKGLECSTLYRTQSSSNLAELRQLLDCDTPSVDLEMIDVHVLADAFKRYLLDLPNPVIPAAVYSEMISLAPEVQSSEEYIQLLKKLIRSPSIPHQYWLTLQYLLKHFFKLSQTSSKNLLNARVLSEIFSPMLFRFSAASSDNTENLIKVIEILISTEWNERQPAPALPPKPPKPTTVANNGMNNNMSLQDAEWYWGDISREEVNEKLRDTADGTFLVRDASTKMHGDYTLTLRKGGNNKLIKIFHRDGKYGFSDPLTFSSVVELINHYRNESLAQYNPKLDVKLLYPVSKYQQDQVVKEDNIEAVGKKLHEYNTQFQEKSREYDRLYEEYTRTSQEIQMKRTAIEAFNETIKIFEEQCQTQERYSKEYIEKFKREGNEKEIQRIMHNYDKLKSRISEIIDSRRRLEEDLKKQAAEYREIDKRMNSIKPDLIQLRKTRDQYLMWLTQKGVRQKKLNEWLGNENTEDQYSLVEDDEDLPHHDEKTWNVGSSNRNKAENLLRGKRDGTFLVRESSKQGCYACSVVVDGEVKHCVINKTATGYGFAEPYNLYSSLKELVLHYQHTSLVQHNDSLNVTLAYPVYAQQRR

As to `CCc1nc2c(F)cc(N3CCOCC3)cc2n1Cc1cccc2ccccc12` [Example 17, 2-ethyl-4-fluoro-6-(4-morpholinyl)-1-(1-naphthalenylmethyl)-1H-benzimidazole], the IC50 is 2.51 nM. For `Cc1c(Cl)cccc1Cn1c(C(F)F)nc2c(C(=O)O)cc(N3CCOCC3)cc21` [Example 72, 1-[(3-chloro-2-methylphenyl)methyl]-2-(difluoromethyl)-6-(4-morpholinyl)-1H-benzimidazole-4-carboxylic acid], the IC50 was 1.58 nM.

As for `Cc1nc2c(C(=O)O)cc(N3CCOCC3)cc2n1Cc1cccc2ccccc12` [Example 20, 2-methyl-6-(4-morpholinyl)-1-(1-naphthalenylmethyl)-1H-benzimidazole-4-carboxylic acid], the IC50 is 6.31 nM. The figure for `Cc1nc2c(C#N)cc(N3CCOCC3)cc2n1Cc1cccc(Cl)c1Cl` [Example 32, 1-[(2,3-dichlorophenyl)methyl]-2-methyl-6-(4-morpholinyl)-1H-benzimidazole-4-carbonitrile] is 12.6 nM; for `Cc1c(Cl)cccc1Cn1c(C)nc2c(C(=O)O)cc(N3CCOCC3)cc21` [Example 59, 1-[(3-chloro-2-methylphenyl)methyl]-2-methyl-6-(4-morpholinyl)-1H-benzimidazole-4-carboxylic acid] it is 6.31 nM. As for `CC(=O)Nc1cc(N2CCOCC2)cc2c1nc(C)n2Cc1cccc2ccccc12` [Example 3, N-(2-Methyl-6-morpholin-4-yl-1-naphthalen-1-ylmethyl-1H-benzoimidazol-4-yl)-acetamide], the IC50 was 200 nM. Take `CCc1nc2c(F)cc(N3CCOCC3)cc2n1Cc1cccc(Cl)c1Cl` [Example 18, 1-[(2,3-dichlorophenyl)methyl]-2-ethyl-4-fluoro-6-(4-morpholinyl)-1H-benzimidazole]: the IC50 was 10 nM. To `Cc1c(Cn2c(C(F)(F)F)nc3c(C(N)=O)cc(N4CCOCC4)cc32)cccc1C(F)(F)F` [Example 54, 1-{[2-methyl-3-(trifluoromethyl)phenyl]methyl}-6-(4-morpholinyl)-2-(trifluoromethyl)-1H-benzimidazole-4-carboxamide] belongs 2.51 nM; to `Cc1c(Cn2c(C(F)F)nc3c(C(=O)O)cc(N4CCOCC4)cc32)cccc1C(F)(F)F` [Example 70, 2-(difluoromethyl)-1-{[2-methyl-3-(trifluoromethyl)phenyl]methyl}-6-(4-morpholinyl)-1H-benzimidazole-4-carboxylic acid], 0.2 nM; to `Cc1nc2c(F)cc(N3CCOCC3)cc2n1Cc1cccc2ccccc12` [Example 15, 4-fluoro-2-methyl-6-(4-morpholinyl)-1-(1-naphthalenylmethyl)-1H-benzimidazole], 1 nM. The figure for `CC(C)c1nc2c(O)cc(N3CCOCC3)cc2n1Cc1cccc2ccccc12` [Example 11, 2-(1-methylethyl)-6-(4-morpholinyl)-1-(1-naphthalenylmethyl)-1H-benzimidazol-4-ol] is 2 nM; for `CC(C)c1nc2c(O)cc(N3CCOCC3)cc2n1Cc1cccc(Cl)c1Cl` [Example 13, 1-[(2,3-dichlorophenyl)methyl]-2-(1-methylethyl)-6-(4-morpholinyl)-1H-benzimidazol-4-ol] it is 7.94 nM. The figure for `Cc1nc2c(C(=O)O)cc(N3CCOCC3)cc2n1Cc1cccc2ccsc12` [Example 73, 1-(1-benzothien-7-ylmethyl)-2-methyl-6-(4-morpholinyl)-1H-benzimidazole-4-carboxylic acid] is 25.1 nM.

For `O=C(O)c1cc(N2CCOCC2)cc2c1nc(C(F)(F)F)n2Cc1cccc2ccccc12` [Example 50, 6-(4-morpholinyl)-1-(1-naphthalenylmethyl)-2-(trifluoromethyl)-1H-benzimidazole-4-carboxylic acid], the IC50 is 1.26 nM. The figure for `Cc1nc2c(C(=O)O)cc(N3CCOCC3)cc2n1Cc1cccc2cccnc12` [Example 35, 2-methyl-6-(4-morpholinyl)-1-(8-quinolinylmethyl)-1H-benzimidazole-4-carboxylic acid] is 63.1 nM; for `Cc1nc2c(-c3nnn[nH]3)cc(N3CCOCC3)cc2n1Cc1cccc2ccccc12` [Example 58, 2-methyl-6-(4-morpholinyl)-1-(1-naphthalenylmethyl)-4-(1H-tetrazol-5-yl)-1H-benzimidazole] it is 6.31 nM. The figure for `CC(=O)c1cc(N2CCOCC2)cc2c1nc(C)n2Cc1cccc2ccccc12` [Example 41, 1-[2-methyl-6-(4-morpholinyl)-1-(1-naphthalenylmethyl)-1H-benzimidazol-4-yl]ethanone] is 1.58 nM.

For the compound `Cc1nc2c(C(=O)O)cc(N3CCOCC3)cc2n1Cc1ccc(Cl)c(Cl)c1` [Example 38, 1-[(3,4-dichlorophenyl)methyl]-2-methyl-6-(4-morpholinyl)-1H-benzimidazole-4-carboxylic acid], the IC50 is 100 nM. For `Cc1c(Cl)cccc1Cn1c(C(F)(F)F)nc2c(C(=O)O)cc(N3CCOCC3)cc21` [Example 53, 1-[(3-chloro-2-methylphenyl)methyl]-6-(4-morpholinyl)-2-(trifluoromethyl)-1H-benzimidazole-4-carboxylic acid], the IC50 is 0.501 nM.

For `Cc1c(Cn2c(C)nc3c(-c4nnc[nH]4)cc(N4CCOCC4)cc32)cccc1C(F)(F)F` [Example 39, 2-methyl-1-{[2-methyl-3-(trifluoromethyl)phenyl]methyl}-6-(4-morpholinyl)-4-(1H-1,2,4-triazol-3-yl)-1H-benzimidazole], the IC50 was 0.631 nM. The figure for `Cc1nc2c(-c3nnc[nH]3)cc(N3CCOCC3)cc2n1Cc1cccc2ccccc12` [Example 25, 2-methyl-6-(4-morpholinyl)-1-(1-naphthalenylmethyl)-4-(1H-1,2,4-triazol-3-yl)-1H-benzimidazole] is 0.251 nM; for `Cc1nc2c(O)cc(N3CCOCC3)cc2n1Cc1cccc2ccccc12` [Example 5, 2-methyl-6-(4-morpholinyl)-1-(1-naphthalenylmethyl)-1H-benzimidazol-4-ol] it is 1.58 nM; for `CCc1nc2c(O)cc(N3CCOCC3)cc2n1Cc1cccc(Cl)c1Cl` [Example 14, 1-[(2,3-dichlorophenyl)methyl]-2-ethyl-6-(4-morpholinyl)-1H-benzimidazol-4-ol] it is 3.16 nM. The figure for `Cc1nc2c(C(=O)O)cc(N3CCOCC3)cc2n1Cc1cccc(Cl)c1Cl` [Example 22, 1-[(2,3-dichlorophenyl)methyl]-2-methyl-6-(4-morpholinyl)-1H-benzimidazole-4-carboxylic acid] is 15.8 nM; for `Cc1c(Cn2c(C)nc3c(CO)cc(N4CCOCC4)cc32)cccc1C(F)(F)F` [Example 43, [2-methyl-1-{[2-methyl-3-(trifluoromethyl)phenyl]methyl}-6-(4-morpholinyl)-1H-benzimidazol-4-yl]methanol] it is 5.01 nM. With `Cc1c(Cn2c(C)nc3c(Br)cc(N4CCOCC4)cc32)cccc1C(F)(F)F` [Example 63, 4-bromo-2-methyl-1-{[2-methyl-3-(trifluoromethyl)phenyl]methyl}-6-(4-morpholinyl)-1H-benzimidazole], the IC50 was 1 nM.
